From patent US6825218B1, “Spherical agglomerates of telithromycin, their preparation process and their use in the preparation of pharmaceutical forms” (Aventis Pharma S. A., priority 1999, dated 2004)

Assay: Granulometry: particle size by laser diffraction (HELOS SYMPATEC granulometer)
Type: physicochemical
Settings: after sieving on a 500 μm grid
Protocol: The size of the particles is determined by laser diffraction using a HELOS SYMPATEC® model granulometer.

diameter of 10% of the particles (10% of the particles below this diameter): < 77 microns
diameter of 50% of the particles (50% of the particles below this diameter): < 107 microns
diameter of 90% of the particles (90% of the particles below this diameter): < 166 microns
SMILES: CC[C@H]1OC(=O)[C@H](C)C(=O)[C@H](C)[C@@H](O[C@@H]2O[C@H](C)C[C@H](N(C)C)[C@H]2O)[C@](C)(O)C[C@@H](C)C(=O)[C@H](C)[C@H]2N(CCCCn3cnc(-c4cccnc4)c3)C(=O)O[C@]12C [spherical agglomerates of telithromycin, 11,12-dideoxy-3-de((2,6-dideoxy-3-C-methyl-3-O-methyl-alpha-L-ribohexopyranosyl)oxy)-6-O-methyl-3-oxo-12,11-(oxycarbonyl((4-(4-(3-pyridinyl)-1H-imidazol-1-yl)butyl)imino))-erythromycin]
